Active and inactive are the calls of the source. The calls are words filed in the database; no cut-off is given here.
Assays:
[1] = system: Rattus norvegicus; test: Antiinflammatory activity in LPS-stimulated rat assessed as total number of leukocytes in bronchoalveolar lavage fluid at 3 mg/kg, po administered 1 hr before LPS challenge measured after 3 hrs; format: functional, Lung
[2] = biological target: T1, cGMP-inhibited 3',5'-cyclic phosphodiesterase 3A (Homo sapiens, UniProt Q14432); test: Inhibition of core catalytic domains PDE3A (unknown origin)
[3] = biological target: 3',5'-cyclic-AMP phosphodiesterase 4B (Homo sapiens, UniProt Q07343); test: Inhibition of core catalytic domains PDE4B (unknown origin)
[4] = biological target: T1, cGMP-inhibited 3',5'-cyclic phosphodiesterase 3A; test: Inhibition of core catalytic domains PDE3A (unknown origin) at 100 uM
[5] = system: Rattus norvegicus; test: Antiinflammatory activity in LPS-stimulated rat assessed as total number of leukocytes in bronchoalveolar lavage fluid at 1 mg/kg, po administered 1 hr before LPS challenge measured after 3 hrs; format: functional, Lung
[6] = system: Rattus norvegicus; test: Antiinflammatory activity in LPS-stimulated rat assessed as total number of leukocytes in bronchoalveolar lavage fluid at 10 mg/kg, po administered 1 hr before LPS challenge measured after 3 hrs; format: functional, Lung

T1 sequence (Q14432 whole entry, the tested form may be a part): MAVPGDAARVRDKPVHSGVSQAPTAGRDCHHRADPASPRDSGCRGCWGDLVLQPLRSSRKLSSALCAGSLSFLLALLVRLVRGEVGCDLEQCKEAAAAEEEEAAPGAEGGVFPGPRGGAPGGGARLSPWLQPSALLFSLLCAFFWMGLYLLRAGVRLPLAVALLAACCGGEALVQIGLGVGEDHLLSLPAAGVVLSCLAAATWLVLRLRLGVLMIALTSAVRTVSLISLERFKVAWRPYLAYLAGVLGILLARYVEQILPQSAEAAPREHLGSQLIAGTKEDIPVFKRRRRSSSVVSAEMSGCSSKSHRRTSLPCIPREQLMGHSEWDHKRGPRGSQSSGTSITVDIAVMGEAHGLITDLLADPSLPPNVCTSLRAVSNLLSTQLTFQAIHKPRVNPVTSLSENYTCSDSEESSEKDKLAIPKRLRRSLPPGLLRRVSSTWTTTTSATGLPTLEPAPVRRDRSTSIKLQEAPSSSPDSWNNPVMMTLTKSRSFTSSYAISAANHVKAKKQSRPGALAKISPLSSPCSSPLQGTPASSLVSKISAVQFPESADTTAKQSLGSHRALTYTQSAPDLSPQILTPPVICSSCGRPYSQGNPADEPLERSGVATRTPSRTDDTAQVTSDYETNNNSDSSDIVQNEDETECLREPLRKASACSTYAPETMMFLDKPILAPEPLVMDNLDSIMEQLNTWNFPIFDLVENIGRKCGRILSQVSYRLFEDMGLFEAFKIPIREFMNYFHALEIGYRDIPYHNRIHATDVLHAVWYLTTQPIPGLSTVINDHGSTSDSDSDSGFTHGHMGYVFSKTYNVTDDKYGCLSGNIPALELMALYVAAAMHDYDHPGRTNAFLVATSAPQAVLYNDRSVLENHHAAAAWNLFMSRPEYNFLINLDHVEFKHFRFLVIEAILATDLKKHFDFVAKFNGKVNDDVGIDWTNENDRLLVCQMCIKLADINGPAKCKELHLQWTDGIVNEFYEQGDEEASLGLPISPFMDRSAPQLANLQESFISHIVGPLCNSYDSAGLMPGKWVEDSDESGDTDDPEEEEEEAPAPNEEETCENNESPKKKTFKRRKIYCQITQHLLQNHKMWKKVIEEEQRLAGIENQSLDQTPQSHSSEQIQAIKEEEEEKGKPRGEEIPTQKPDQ
3',5'-cyclic-AMP phosphodiesterase 4B, sequence (Q07343 whole entry, the tested form may be a part): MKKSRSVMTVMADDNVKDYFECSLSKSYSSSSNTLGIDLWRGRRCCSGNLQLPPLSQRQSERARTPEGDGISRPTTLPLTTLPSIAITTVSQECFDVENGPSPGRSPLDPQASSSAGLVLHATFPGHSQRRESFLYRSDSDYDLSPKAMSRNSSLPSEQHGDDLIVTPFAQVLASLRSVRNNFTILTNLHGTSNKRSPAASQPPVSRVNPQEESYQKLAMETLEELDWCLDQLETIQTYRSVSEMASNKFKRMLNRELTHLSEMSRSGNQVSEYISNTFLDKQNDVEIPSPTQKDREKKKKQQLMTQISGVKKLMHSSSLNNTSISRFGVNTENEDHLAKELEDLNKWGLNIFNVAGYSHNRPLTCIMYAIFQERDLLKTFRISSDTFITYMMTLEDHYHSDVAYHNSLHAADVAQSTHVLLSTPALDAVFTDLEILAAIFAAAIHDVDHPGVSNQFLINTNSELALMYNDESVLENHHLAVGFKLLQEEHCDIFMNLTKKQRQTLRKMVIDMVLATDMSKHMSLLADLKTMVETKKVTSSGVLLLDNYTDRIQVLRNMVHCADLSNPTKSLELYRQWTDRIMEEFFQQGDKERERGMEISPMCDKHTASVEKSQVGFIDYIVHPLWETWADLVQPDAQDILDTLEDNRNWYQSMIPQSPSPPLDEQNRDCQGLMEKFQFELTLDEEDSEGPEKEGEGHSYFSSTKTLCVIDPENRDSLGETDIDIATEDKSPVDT

Row | Compound | IC50 [2] | IC50 [3] | inhibition [4] | Activity [1] | Activity [5] | Activity [6]
1 | COc1ccc(C(=O)c2ccncc2)c2cc(C(F)(F)F)nn12 | – | 980 nM | inactive | – | – | –
2 | COc1ccc(C(=O)Nc2c(Cl)c[n+]([O-])cc2Cl)c2cc(C#N)nn12 | – | 22 nM | inactive | 61% | – | –
3 | COc1ccc(C(=O)Nc2c(Cl)cncc2Cl)c2cc(C(=O)O)nn12 | – | 550 nM | inactive | – | – | –
4 | COc1ccc(C(=O)C(=O)c2ccncc2)c2cc(C(F)(F)F)nn12 | – | 1260 nM | inactive | – | – | –
5 | COc1ccc(C(O)c2ccncc2)c2cc(C(F)(F)F)nn12 (centres undefined) | – | 10200 nM | inactive | – | – | –
6 | COc1ccc(CCc2ccncc2)c2cc(C(F)(F)F)nn12 | – | 4.9 nM | inactive | 55% | – | –
7 | COc1ccc(C(=O)Nc2c(Cl)c[n+]([O-])cc2Cl)c2ccnn12 | – | 2.7 nM | inactive | 57% | – | –
8 | COc1ccc(C(=O)Nc2c(Cl)cncc2Cl)c2cc(/C=N/O)nn12 | > 100000 nM | 5.1 nM | – | 41% | – | –
9 | COCc1cc2c(C(=O)Nc3c(Cl)c[n+]([O-])cc3Cl)ccc(OC)n2n1 | – | 50 nM | inactive | 18% | – | –
10 | COc1ccc(/C=C/c2ccncc2)c2cc(C(F)(F)F)nn12 | 67100 nM | 15 nM | – | 57% | – | –
11 | COc1ccc(C(=O)Nc2c(Cl)c[n+]([O-])cc2Cl)c2cc(C3CC3)nn12 | – | 2.8 nM | inactive | – | 62% | –
12 | COc1ccc(Cc2ccncc2)c2cc(C(F)(F)F)nn12 | > 100000 nM | 570 nM | – | – | – | –
13 | CCc1cc2c(C(=O)Nc3c(Cl)c[n+]([O-])cc3Cl)ccc(OC)n2n1 | – | 9.4 nM | inactive | 40% | – | –
14 | COc1ccc(C(O)Cc2ccncc2)c2cc(C(F)(F)F)nn12 (centres undefined) | – | 750 nM | inactive | – | – | –
15 | COc1ccc(C(O)Cc2c(Cl)cncc2Cl)c2cc(C(F)(F)F)nn12 (centres undefined) | – | 39 nM | inactive | – | – | –
16 | COc1ccc(C(=O)Cc2ccncc2)c2cc(C(F)(F)F)nn12 | – | 9.4 nM | inactive | – | – | –
17 | COc1ccc(C2=NNC(=O)CC2C)c2cc(C(F)(F)F)nn12 (single isomer, unassigned; (-)) | – | – | – | – | 79% | –
18 | O=C(Nc1c(Cl)cncc1Cl)c1ccc(OC(F)F)c(OCC2CC2)c1 [ROFLUMILAST] | > 100000 nM | – | – | – | – | 59%
19 | COCc1cc2c(C(=O)Nc3c(Cl)cncc3Cl)ccc(OC)n2n1 | – | 13 nM | inactive | – | 54% | –
20 | COc1ccc(C(=O)Nc2c(Cl)c[n+]([O-])cc2Cl)c2cc(C(C)C)nn12 | – | 10 nM | inactive | – | – | 63%
21 | COc1ccc(C(=O)Nc2c(Cl)cncc2Cl)c2ccnn12 | > 100000 nM | 39 nM | – | 0% | – | –
22 | COc1ccc(/C=C/c2c(Cl)cncc2Cl)c2cc(C(F)(F)F)nn12 | – | 5.5 nM | inactive | 39% | – | –
23 | COc1cccc2c(C(=O)Nc3c(Cl)c[n+]([O-])cc3Cl)c(C(F)(F)F)nn12 | – | 16600 nM | inactive | – | – | –

More lines, main results first:

Row | IC50 [2] | IC50 [3] | inhibition [4] | Compound | Activity [1] | Activity [5] | Activity [6]
24 | > 100000 nM | 7 nM | – | CCc1cc2c(C(=O)Nc3c(Cl)cncc3Cl)ccc(OC)n2n1 | 53% | – | –
25 | > 100000 nM | 0.11 nM | – | CSc1ccc(C(=O)Nc2c(Cl)cncc2Cl)c2cc(C(F)(F)F)nn12 | 52% | – | –
26 | – | 0.19 nM | inactive | CNc1ccc(C(=O)Nc2c(Cl)cncc2Cl)c2cc(C(F)(F)F)nn12 | 33% | – | –
27 | – | 4.5 nM | inactive | COCc1ccc(C(=O)Nc2c(Cl)cncc2Cl)c2cc(C(F)(F)F)nn12 | 31% | – | –
28 | > 100000 nM | 8 nM | – | CC(O)c1ccc(C(=O)Nc2c(Cl)cncc2Cl)c2cc(C(F)(F)F)nn12 (centres undefined) | 59% | – | –
29 | – | 9.8 nM | inactive | COc1ccc(C(=O)Nc2c(Cl)cncc2Cl)c2cc(C=O)nn12 | 64% | – | –
30 | – | 0.27 nM | inactive | COc1ccc(C(=O)Nc2c(Cl)cncc2Cl)c2cc(C(F)(F)F)nn12 | – | 60% | –
31 | > 100000 nM | 4.1 nM | – | COc1ccc(C(=O)Nc2c(Cl)cncc2Cl)c2cc(C#N)nn12 | 66% | – | –
32 | > 100000 nM | 2.9 nM | – | COc1ccc(C(=O)Nc2c(Cl)cncc2Cl)c2cc(C(C)=O)nn12 | 41% | – | –
33 | – | 31 nM | inactive | O=C(Nc1c(Cl)cncc1Cl)c1ccc(CO)n2nc(C(F)(F)F)cc12 | 26% | – | –
34 | – | 6130 nM | inactive | COc1cccc2c(C(=O)Nc3c(Cl)cncc3Cl)c(C(F)(F)F)nn12 | – | – | –
35 | – | 2.9 nM | inactive | COc1ccc(C(=O)Cc2c(Cl)cncc2Cl)c2cc(C(F)(F)F)nn12 | – | – | 87%
36 | – | 1.5 nM | inactive | COc1ccc(C(=O)Nc2c(Cl)c[n+]([O-])cc2Cl)c2cc(C(F)(F)F)nn12 | 77% | – | –
37 | – | 110 nM | inactive | COc1ccc(C(=O)Nc2c(Cl)cncc2Cl)c2cc(C(C)C)nn12 | 64% | – | –
38 | 71400 nM | 150 nM | – | COc1ccc(CNc2c(Cl)cncc2Cl)c2cc(C(F)(F)F)nn12 | – | – | –
39 | – | 240 nM | inactive | COc1ccc(NC(=O)c2c(Cl)cncc2Cl)c2cc(C(F)(F)F)nn12 | – | – | –
40 | – | 21 nM | inactive | CC(=O)c1ccc(C(=O)Nc2c(Cl)cncc2Cl)c2cc(C(F)(F)F)nn12 | 43% | – | –
41 | – | 0.2 nM | inactive | COc1ccc(C(=O)Nc2c(Cl)cncc2Cl)c2cc(C(F)F)nn12 | 32% | – | –
42 | > 100000 nM | 0.51 nM | – | COc1ccc(C(=O)Nc2c(Cl)cncc2Cl)c2cc(C3CC3)nn12 | 71% | – | –
43 | – | 83 nM | inactive | COc1ccc(C(=O)Nc2c(Cl)cncc2Cl)c2cc(C(C)O)nn12 (centres undefined) | 60% | – | –

Source: ChEMBL document CHEMBL2424518, “Phosphodiesterase inhibitors. Part 6: design, synthesis, and structure-activity relationships of PDE4-inhibitory pyrazolo[1,5-a]pyridines with anti-inflammatory activity” (Bioorg Med Chem Lett, 2013)
